Test results published in publication PMC9532951, “Identification and characterization of a novel SNAT2 (SLC38A2) inhibitor reveals synergy with glucose transport inhibition in cancer cells” (Frontiers in Pharmacology, 2022).
“And” between values parts separate entries of the source, which are not always exact repeats. Identical values can stand only once.

Key:
Assay type in all cases: cell-based, human
MDA-MB-231 cells = assay: Growth assay (IncuCyte confluence), MDA-MB-231; design: key to Growth (Figure 6A) / cell confluence (Figure 6F): % confluence; details: for Growth (Figure 6A): MDA-MB-231
Experimental: (§1) Cells were seeded on 96-well flat bottom plates at approximately 3000 cells/well and incubated in growth medium (DMEM/F12 supplemented with 10% FBS, 2 mM glutamine) for 24 h. The next day, the growth medium was aspirated and exchanged with 300 μL/well of growth medium containing compounds at the indicated concentration. For live cell analysis, plates were placed in the IncuCyte system (Essen Bioscience), which was housed in a cell incubator (37°C, humidified atmosphere composed of 95% air and 5% CO2) and confluence measured at 6-h intervals or at the assay endpoint when untreated control cells reached a confluency >90%. Antibiotics (10 U/mL penicillin and 10 μg/ml streptomycin) were included in the treatment solutions.
(§2) Growth curves were generated using the Gompertz function of OriginPro software: y=ae^−e^(−k(x−xc))
(§3) Where a is the maximum confluence or upper asymptote, k is the growth rate coefficient, xc is the time point at which 50% confluence is reached (inflection point) and e is Euler’s number. Cell growth data are shown as % confluence.
Synergism between drug combinations was quantified using ZIP synergy scoring as calculated by SynergyFinder ([Yadav et al., 2015]).

HCC1806 wild-type cells = assay: FMP assay in the absence of amino acid substrate (non-specific effects)
Experimental: The FLIPR Membrane Potential Blue Explorer Kit (Molecular Devices) was used to characterise inhibitors and to optimise a high-throughput compound screen. Cells were seeded at approximately 60,000 cells/well on a 96-well plate and allowed to attach and grow overnight in a cell incubator. The next day, the cells were washed once with mHBSS and incubated in a starvation medium (composed of mHBSS with 1% dialysed heat-inactivated FBS, 23 mM NaHCO3, 10 U/ml penicillin and 10 μg/ml streptomycin) for 24 h. Cells were then washed once with mHBSS and incubated with 50 µl of the mHBSS-resuspended FMP assay dye and 50 µl of mHBSS (with or without inhibitors) and incubated at room temperature for 30 min. The plate was then placed in an EnSpire Multimode plate reader (PerkinElmer) and four sequential measurements of fluorescence were recorded as a baseline reference. […] The excitation wavelength was set to 530 nm and the emission was detected at 565 nm. The Δ fluorescent signal reported in the figures was taken 30 s after substrate addition. After the assay was complete, the liquid content of the plate was carefully removed, and the cell monolayer inspected to ensure it remained intact throughout the course of the assay.

OVCAR3 cells = assay: Growth assay (IncuCyte confluence), OVCAR3
In short: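 OVCAR3 cells were seeded at about 3000 cells/well in 96-well plates in DMEM/F12 with 10% FBS and 2 mM glutamine for 24 h. They then received 300 μL/well of medium with compounds plus penicillin/streptomycin. Plates sat in an IncuCyte at 37°C and 5% CO2, and confluence was imaged every 6 h or at the endpoint once untreated controls passed 90%. Growth is given as % confluence, and curves were fitted with the Gompertz function in OriginPro.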

HCC1806 cells = assay: Growth assay (IncuCyte confluence), HCC1806; details: HCC1806, growth medium
Experimental: as §1, §2, §3

SNAT1/2 = assay: FMP assay: depolarisation by amino acid substrates in amino acid depleted HCC1806 cells
Experimental: The FLIPR Membrane Potential Blue Explorer Kit (Molecular Devices) was used to characterise inhibitors and to optimise a high-throughput compound screen. Cells were seeded at approximately 60,000 cells/well on a 96-well plate and allowed to attach and grow overnight in a cell incubator. […] Cells were then washed once with mHBSS and incubated with 50 µl of the mHBSS-resuspended FMP assay dye and 50 µl of mHBSS (with or without inhibitors) and incubated at room temperature for 30 min. The plate was then placed in an EnSpire Multimode plate reader (PerkinElmer) and four sequential measurements of fluorescence were recorded as a baseline reference. Immediately after the baseline measurements were taken, 25 µl of 5 mM glutamine dissolved in mHBSS was injected into each well and the plate was shaken orbitally for 5 s before a series of consecutive fluorescence measurements were taken. The excitation wavelength was set to 530 nm and the emission was detected at 565 nm. […] After the assay was complete, the liquid content of the plate was carefully removed, and the cell monolayer inspected to ensure it remained intact throughout the course of the assay.

For Cc1ccc(S(=O)(=O)N(C)c2ccsc2C(=O)NCc2ccccc2C(F)(F)F)cc1 [Compound 57_E, 3-(N-methyl (4-methylphenyl)sulfonamido)-N-(2-trifluoromethylbenzyl)thiophene-2-carboxamide], the tolerated concentration (MDA-MB-231 cells; MDA-MB-231, growth medium) was “up to 30 μM”, the “Growth (Figure 6A)” value (MDA-MB-231 cells; concentration 1) was 82.35 and 90.35 and 97.85 and the “Growth (Figure 6A)” value (MDA-MB-231 cells; concentration 3) was 76.3 and 97.1 and 98.3. The “Growth (Figure 6A)” value (MDA-MB-231 cells; concentration 10) was 70.5 and 94.85 and 92.9, the “Growth (Figure 6A)” value (MDA-MB-231 cells; concentration 30) was 68.4 and 70.75 and 88.35 and the “Growth (Figure 6A)” value (MDA-MB-231 cells; concentration 100) was 57.95 and 91.15 and 66.7. For the same compound, the “effect on FMP signal without substrate” value (HCC1806 wild-type cells; 30 µM) was “small hyperpolarisation”, the “FMP fluorescence trace (Figure 4C)” value (HCC1806 wild-type cells; time 0) was 66214 and 65985 and 59075 and the “FMP fluorescence trace (Figure 4C)” value (HCC1806 wild-type cells; time 20) was 50115 and 66503 and 60514. For the same compound, the “FMP fluorescence trace (Figure 4C)” value (HCC1806 wild-type cells; time 40) was 49573 and 67066 and 60917, the “FMP fluorescence trace (Figure 4C)” value (HCC1806 wild-type cells; time 60) was 49249 and 67578 and 60989 and the “FMP fluorescence trace (Figure 4C)” value (HCC1806 wild-type cells; time 80) was 48925 and 68056 and 61565. The “FMP fluorescence trace (Figure 4C)” value (HCC1806 wild-type cells; time 100) was 48207 and 68319 and 61663, the “FMP fluorescence trace (Figure 4C)” value (HCC1806 wild-type cells; time 120) was 47392 and 68434 and 62185 and the “FMP fluorescence trace (Figure 4C)” value (HCC1806 wild-type cells; time 140) was 47194 and 68990 and 62194. For the same compound, the “FMP fluorescence trace (Figure 4C)” value (HCC1806 wild-type cells; time 160) was 46255 and 69305 and 62352, the “FMP fluorescence trace (Figure 4C)” value (HCC1806 wild-type cells; time 180) was 45269 and 69919 and 62492 and the “FMP fluorescence trace (Figure 4C)” value (HCC1806 wild-type cells; time 200) was 44480 and 70206 and 63053. For the same compound, the “FMP fluorescence trace (Figure 4C)” value (HCC1806 wild-type cells; time 220) was 43946 and 70155 and 63572, the “FMP fluorescence trace (Figure 4C)” value (HCC1806 wild-type cells; time 240) was 43376 and 70703 and 63707 and the “FMP fluorescence trace (Figure 4C)” value (HCC1806 wild-type cells; time 260) was 42447 and 71161 and 64093. For the same compound, the “FMP fluorescence trace (Figure 4C)” value (HCC1806 wild-type cells; time 280) was 41764 and 71707 and 64350, the “FMP fluorescence trace (Figure 4C)” value (HCC1806 wild-type cells; time -20) was 65818 and 65842 and 59063 and the “FMP fluorescence trace (Figure 4C)” value (HCC1806 wild-type cells; time -40) was 65477 and 66036 and 58494. For the same compound, the “Growth (Figure 6A)” value (OVCAR3 cells; concentration 1) was 94.3 and 98.2 and 97.5, the “Growth (Figure 6A)” value (OVCAR3 cells; concentration 3) was 91.1 and 97.6 and 98.2 and the “Growth (Figure 6A)” value (OVCAR3 cells; concentration 10) was 93.85 and 97.6 and 98.05. For the same compound, the “Growth (Figure 6A)” value (OVCAR3 cells; concentration 30) was 90.7 and 97.95, the “Growth (Figure 6A)” value (OVCAR3 cells; concentration 100) was 89.25 and 92.95 and 91.35 and the tolerated concentration (HCC1806 cells) was “up to 30 μM”.
For NC(=O)CC[C@H](N)C(=O)O [Glutamine, glutamine], the “FMP response as substrate” value (SNAT1/2; 1 mM) was “strongest response”, the Km (SNAT1/2; FMP signal plateau vs glutamine concentration, HCC1806 AA- (24h)) was 120 ± 10 µM and the FMP fluorescence reading (SNAT1/2; glutamine 0.01mM, t=60 s) was 68858 and 69253 and 69708. The FMP fluorescence reading (SNAT1/2; glutamine 0.01mM, t=75 s) was 69325 and 69681 and 70188, the FMP fluorescence reading (SNAT1/2; glutamine 0.01mM, t=90 s) was 69269 and 70070 and 70405 and the FMP fluorescence reading (SNAT1/2; glutamine 0.01mM, t=105 s) was 69763 and 69788 and 70466. For the same compound, the FMP fluorescence reading (SNAT1/2; glutamine 0.03mM (c24-c26), t=60 s) was 77460 and 80576 and 83628, the FMP fluorescence reading (SNAT1/2; glutamine 0.03mM (c24-c26), t=75 s) was 77730 and 80978 and 84391 and the FMP fluorescence reading (SNAT1/2; glutamine 0.03mM (c24-c26), t=90 s) was 78184 and 81512 and 84232. For the same compound, the FMP fluorescence reading (SNAT1/2; glutamine 0.03mM (c24-c26), t=105 s) was 78227 and 82096 and 85186, the FMP fluorescence reading (SNAT1/2; glutamine 0.03mM (last group, c32-c34), t=60 s) was 64072 and 69800 and 70295 and the FMP fluorescence reading (SNAT1/2; glutamine 0.03mM (last group, c32-c34), t=75 s) was 63883 and 70289 and 71073. For the same compound, the FMP fluorescence reading (SNAT1/2; glutamine 0.03mM (last group, c32-c34), t=90 s) was 63947 and 70196 and 70790, the FMP fluorescence reading (SNAT1/2; glutamine 0.03mM (last group, c32-c34), t=105 s) was 64771 and 70484 and 71450 and the FMP fluorescence reading (SNAT1/2; glutamine 0.1mM, t=60 s) was 88925 and 96285 and 98180. The FMP fluorescence reading (SNAT1/2; glutamine 0.1mM, t=75 s) was 90234 and 97546 and 98972, the FMP fluorescence reading (SNAT1/2; glutamine 0.1mM, t=90 s) was 91221 and 98690 and 100400 and the FMP fluorescence reading (SNAT1/2; glutamine 0.1mM, t=105 s) was 92076 and 98971 and 100952. The FMP fluorescence reading (SNAT1/2; glutamine 0.3mM, t=60 s) was 99455 and 107961 and 111369, the FMP fluorescence reading (SNAT1/2; glutamine 0.3mM, t=75 s) was 100398 and 109749 and 113586 and the FMP fluorescence reading (SNAT1/2; glutamine 0.3mM, t=90 s) was 101543 and 111206 and 114721. The FMP fluorescence reading (SNAT1/2; glutamine 0.3mM, t=105 s) was 102418 and 111967 and 115020, the FMP fluorescence reading (SNAT1/2; glutamine 1mM, t=60 s) was 112569 and 120148 and 129663 and the FMP fluorescence reading (SNAT1/2; glutamine 1mM, t=75 s) was 115039 and 122576 and 131835. For the same compound, the FMP fluorescence reading (SNAT1/2; glutamine 1mM, t=90 s) was 116433 and 124735 and 133470, the FMP fluorescence reading (SNAT1/2; glutamine 1mM, t=105 s) was 117747 and 125438 and 134724 and the FMP fluorescence reading (SNAT1/2; glutamine 1mM, t=120 s) was 118812 and 126597 and 134693. The FMP fluorescence reading (SNAT1/2; glutamine 3mM, t=60 s) was 133412 and 124199 and 129325, the FMP fluorescence reading (SNAT1/2; glutamine 3mM, t=75 s) was 135706 and 127374 and 131981 and the FMP fluorescence reading (SNAT1/2; glutamine 3mM, t=90 s) was 138077 and 129014 and 134980. For the same compound, the FMP fluorescence reading (SNAT1/2; glutamine 3mM, t=105 s) was 139888 and 130819 and 136553, the FMP fluorescence reading (SNAT1/2; glutamine 3mM, t=120 s) was 140944 and the FMP fluorescence reading (SNAT1/2; glutamine 10mM, t=60 s) was 123199 and 132978 and 133617. The FMP fluorescence reading (SNAT1/2; glutamine 10mM, t=75 s) was 127611 and 136168 and 137553, the FMP fluorescence reading (SNAT1/2; glutamine 10mM, t=90 s) was 130129 and 138788 and 140464 and the FMP fluorescence reading (SNAT1/2; glutamine 10mM, t=105 s) was 132559 and 141221 and 142567.
